Data on one molecule can be found in patent US20060008506A1, “Method for preparing therapeutic ophthalmic articles using compressed fluids” (priority 2004, published 2006).

The nature of series [1]: analysis of preservation and storage media after three-month storage of impregnated Focus Dailies lenses. The series is classed as physicochemical. Particulars: for effective total mass of Flurbiprofen impregnated in the article: sum of storage and release amounts; for mass of Flurbiprofen released in preservation and storage media: three-month storage in 0.9% NaCl. Here is the method:
Afterwards, the two ophthalmic articles were stored and preserved in physiological serum (saline solution, 0.9% NaCl) in closed vessels, for three months. After this period, in vitro kinetic studies were carried out in respect of Flurbiprofen release, following the experimental procedures already described at Example 1.
The maximum cumulative amount of released Flurbiprofen was about 0.007 mg for experiment I and about 0.035 mg for experiment II. These amounts were actually attained after 7 hours of release kinetic studies. […] However, in these cases it cannot be assumed that these values correspond to the total amount of Flurbiprofen impregnated in each ophthalmic article, given that part of the impregnated drug was released in the preservation medium during the three-month storage period. Preservation and storage media were also analyzed and the mass of Flurbiprofen released therein was about 0.0030 mg for experiment I and about 0.0025 mg for experiment II. Therefore, we can assume that the effective total mass of Flurbiprofen impregnated in the two articles was 0.0100 mg and 0.0375 mg respectively for experiments I and II.

Series [2] in a line: in vitro release kinetic study of impregnated Focus Dailies (Nelfilcon A) hydrogel contact lenses after three-month storage. The series is classed as physicochemical. The settings on record: for maximum cumulative amount of released Flurbiprofen: CO2, 41° C., after three months storage in 0.9% NaCl. Here is the method:
Later on, the impregnated ophthalmic article was placed in 5 ml of physiological serum (saline solution, 0.9% NaCl) inside a closed vessel. This vessel was subsequently placed inside a temperature controlled bath (at 37° C.), in order to carry out the in vitro sustained release kinetic study of the drug (Flurbiprofen). At regular time intervals (shorter time intervals at the beginning), 3 ml of the release solution (containing the released drug) were removed from the vessel and replaced by 3 ml of fresh physiological serum. The concentration of Flurbiprofen was determined by spectroscopy for each sample collected. Two Focus® […]® (Ciba Vision, Ga., USA) hydrogel contact lenses (non ionic, high hydration, FDA Group II, 69% water+31% Nelfilcon A copolymer) were separately treated in two different experiments (I and II) by means of the above-mentioned third embodiment of the process, in accordance with the invention and according to FIG. 3. In both experiments, the ophthalmic articles processed were impregnated with Flurbiprofen (CAS[5104-49-4], 97% purity, Sigma-Aldrich) using Carbon Dioxide (99.998% purity, Air Liquide). No co-solvent was added and no stirring was employed. In experiment I, the operating conditions were 41° C. and 90 bar, while in experiment II the operating conditions were 41° C. and 120 bar. In both experiments, drug solubilization was carried out for 1 hour and 30 minutes, and impregnation was carried out for 1 hour. After impregnation, the vessel was slowly depressurized (for 15 minutes) and the compressed fluid (Carbon Dioxide) was removed. The high pressure vessel was then removed from the temperature controlled bath, opened and the ophthalmic article was recovered, impregnated with Flurbiprofen. Afterwards, the two ophthalmic articles were stored and preserved in physiological serum (saline solution, 0.9% NaCl) in closed vessels, for three months. After this period, in vitro kinetic studies were carried out in respect of Flurbiprofen release, following the experimental procedures already described at Example 1.

Series [3] is described as follows: in vitro sustained release kinetic study of impregnated Focus Monthly (Vifilcon A) hydrogel contact lens in physiological serum. The series is classed as physicochemical. The settings on record: 90.0 bar, 40.0° C.; for release time at which maximum cumulative amount was attained: 0.9% NaCl at 37° C.; for maximum cumulative amount of released Flurbiprofen: 30 min. As for the experimental part: A Focus® Monthly® (Ciba Vision, Ga., USA) hydrogel contact lens (ionic, high hydration, FDA Group IV, 55% water+45% Vifilcon A copolymer) was treated by means of the above-mentioned first embodiment of the process, in accordance with the invention and according to FIG. 1. The ophthalmic article was contacted in a sealed high pressure vessel with a mixture of compressed carbon Dioxide (99.998% purity, Air Liquid), Flurbiprofen (CAS[5104-49-4], 97% purity, Sigma-Aldrich) and Ethanol (CAS[64-17-5], 99.8% purity, Fluka), as co-solvent (5% molar in respect of carbon Dioxide). The operating conditions were 90.0 bar and 40.0° C. No stirring was employed. After a 30 minute processing time, the vessel was slowly expanded (for 1.5 minutes) and the compressed fluid (carbon Dioxide) was removed. Part of the co-solvent (Ethanol) was dragged out of the system by the Carbon Dioxide, while its remaining part precipitated, as a liquid, to the bottom of the high pressure vessel. The high pressure vessel was then removed from the temperature controlled bath, opened and the ophthalmic article was recovered, impregnated with Flurbiprofen. Later on, the impregnated ophthalmic article was placed in 5 ml of physiological serum (saline solution, 0.9% NaCl) inside a closed vessel. This vessel was subsequently placed inside a temperature controlled bath (at 37° C.), in order to carry out the in vitro sustained release kinetic study of the drug (Flurbiprofen). At regular time intervals (shorter time intervals at the beginning), 3 ml of the release solution (containing the released drug) were removed from the vessel and replaced by 3 ml of fresh physiological serum. The concentration of Flurbiprofen was determined by spectroscopy for each sample collected. A Focus® Monthly® (Ciba Vision, Ga., USA) hydrogel contact lens (ionic, high hydration, FDA Group IV, 55% water+45% Vifilcon A copolymer) was treated by means of the above-mentioned first embodiment of the process, in accordance with the invention and according to FIG. 1. The ophthalmic article was contacted in a sealed high pressure vessel with a mixture of Carbon Dioxide (99.998% purity, Air Liquide) and Flurbiprofen (CAS[5104-49-4], 97% purity, Sigma-Aldrich). No co-solvent was added. The operating conditions were 90.0 bar and 40.0° C. No stirring was employed. After a 30 minute processing time, the vessel was slowly expanded (for 15 minutes) and the compressed fluid (Carbon Dioxide) was removed. The high pressure vessel was then removed from the temperature controlled bath, opened and the ophthalmic article was recovered, impregnated with Flurbiprofen. The in vitro kinetic studies concerning the release of Flurbiprofen were conducted in accordance with the experimental procedures already described at Example 1.

The subject of the next series is baboons. Particulars: single dose of 125 mg/Kg; cited from earlier work.
The test system of a further series is inflammatory processes. Particulars: cited from earlier work.

`CC(C(=O)O)c1ccc(-c2ccccc2)c(F)c1` (stereo not shown) [Flurbiprofen]: the “effective total mass of Flurbiprofen impregnated in the article” value in series [1] (Example 3, experiment I (41° C., 90 bar)) is recorded as 0.0100 mg; in series [1] (Example 3, experiment II (41° C., 120 bar)) it was 0.0375 mg. The “mass of Flurbiprofen released in preservation and storage media” value in series [1] (Example 3, experiment I (90 bar)) is “about 0.0030 mg”; in series [1] (Example 3, experiment II (120 bar)), “about 0.0025 mg”. Also, the “maximum cumulative amount of released Flurbiprofen” value in series [2] (Example 3, experiment I: Focus Dailies lens, 90 bar) was “about 0.007 mg”; in series [2] (Example 3, experiment II: Focus Dailies lens, 120 bar), “about 0.035 mg”; in series [3] (Example 1: Focus Monthly lens impregnated with CO2 + 5% molar ethanol co-solvent, release in 5 ml 0.9% NaCl at 37° C.), “about 0.25 mg”; in series [3] (Example 2: Focus Monthly lens impregnated with CO2, no co-solvent, release in 0.9% NaCl at 37° C.) it was “about 0.11 mg”. Also, the “release time at which maximum cumulative amounts were attained” value in series [2] (Example 3, experiments I and II) was determined as 7 h. The “release time at which maximum cumulative amount was attained” value turned out to be 24 h in series [3] (Example 1: CO2 + ethanol co-solvent) and 6 h in series [3] (Example 2: CO2, no co-solvent). Moreover, the acute toxicity entry in the series with baboons is recorded as “no acute toxicity”. Moreover, in the series with inflammatory processes, the “minimum amount of Flurbiprofen to be kept in the eye to prevent inflammatory processes” value was 0.03 to 0.15 µg.
